Assay results taken from patent US10633338B2, “Binding Function 3 (BF3) site compounds as therapeutics and methods for their use” (THE UNIVERSITY OF BRITISH COLUMBIA, priority 2014, dated 2020).
Like-named read-outs stand apart in the source and are kept apart here.

Key:
androgen receptor (AR) = target: T1, androgen receptor (AR) (Homo sapiens, UniProt P10275, T878A); experiment: eGFP cellular AR transcription assay; assay type: cell-based; settings: LN-ARR2PBeGFP LNCaP cells, 0.1 nM R1881, 3 days incubation; for IC50: read-out: eGFP IC50
T1 construct: stably transfected eGFP-expressing LNCaP human prostate cancer cells (LN-ARR2PB-eGFP) containing an androgen responsive probasin-derived promoter; endogenous in cells; host or cells: LNCaP (LN-ARR2PB-eGFP)
T1 sequence (P10275 1-920 T878A): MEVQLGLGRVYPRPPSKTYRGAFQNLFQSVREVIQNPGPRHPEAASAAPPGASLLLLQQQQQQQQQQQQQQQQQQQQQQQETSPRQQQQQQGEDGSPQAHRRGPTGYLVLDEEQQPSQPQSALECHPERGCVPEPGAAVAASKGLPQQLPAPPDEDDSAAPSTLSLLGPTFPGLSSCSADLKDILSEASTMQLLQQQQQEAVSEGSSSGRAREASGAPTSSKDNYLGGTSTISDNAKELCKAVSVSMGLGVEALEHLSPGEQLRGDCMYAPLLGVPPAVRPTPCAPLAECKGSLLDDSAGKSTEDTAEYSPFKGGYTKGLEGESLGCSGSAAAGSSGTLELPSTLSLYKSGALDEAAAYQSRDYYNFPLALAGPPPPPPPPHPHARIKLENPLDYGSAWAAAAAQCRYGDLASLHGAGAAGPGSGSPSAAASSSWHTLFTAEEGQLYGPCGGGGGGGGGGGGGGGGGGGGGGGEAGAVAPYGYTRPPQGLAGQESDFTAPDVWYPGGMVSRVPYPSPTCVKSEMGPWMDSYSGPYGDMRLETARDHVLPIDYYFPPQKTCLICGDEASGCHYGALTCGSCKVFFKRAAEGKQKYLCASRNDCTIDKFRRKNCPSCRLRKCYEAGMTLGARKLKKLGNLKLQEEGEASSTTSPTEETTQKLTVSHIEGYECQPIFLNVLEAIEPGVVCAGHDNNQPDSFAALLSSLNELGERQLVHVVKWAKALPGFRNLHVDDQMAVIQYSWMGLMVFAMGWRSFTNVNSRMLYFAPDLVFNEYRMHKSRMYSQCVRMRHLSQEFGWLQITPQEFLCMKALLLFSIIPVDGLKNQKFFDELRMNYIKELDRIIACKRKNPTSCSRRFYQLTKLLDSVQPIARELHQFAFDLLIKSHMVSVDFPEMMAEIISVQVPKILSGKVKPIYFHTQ
In short: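 AR transcriptional activity is read as eGFP expression from a probasin-derived androgen-responsive promoter. Compound titrated 0-100 μM in the presence of 0.1 nM R1881; 35,000 cells/well.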

PSA = experiment: Prostate Surface Antigen (PSA) assay, PSA excreted into the media; assay type: cell-based, human; settings: PSA excreted into media, same plates as eGFP assay, 3 days incubation; for IC50: read-out: PSA IC50
Procedure: The evaluation of PSA excreted into the media was performed in parallel to the eGFP assay using the same plates (see above description). After the cells were incubated for 3 days 150 μl of the media was taken from each well, and added to 150 μl of PBS.

SMILES | IC50 (androgen receptor (AR)) | IC50 (PSA; Homo sapiens, 72 h) | IC50 (PSA) | eGFP IC50 (androgen receptor (AR)) | PSA IC50 (PSA)
CNC(=O)c1cccc2nc(-c3c[nH]c4c(F)cc(F)cc34)ccc12 [Compound 13696] | 42 nM | 42 nM |  |  | 
Fc1cccc2ccc(-c3c[nH]c4c(F)cccc34)nc12 [Compound 13697] | 29 nM | 29 nM |  |  | 
Fc1cccc2c(-c3ccc4cccc(Cl)c4n3)c[nH]c12 [Compound 13698] | 41 nM | 41 nM |  |  | 
Cc1cccc2c(-c3cnc4ccccc4n3)c[nH]c12 [Compound 13699] | 73 nM |  | 73 nM |  | 
c1ccc2c(Cc3nn[nH]n3)c[nH]c2c1 [Compound 13700] |  |  |  | Inactive | Inactive
c1ccc2c(-c3nn[nH]n3)c[nH]c2c1 [Compound 13701] |  |  |  | Inactive | Inactive
O=[N+]([O-])c1cccc2c(-c3ccc4ccccc4c3)c[nH]c12 [Compound 13702] | 210 nM | 140 nM |  |  | 
Cc1cc(F)cc2c(-c3ccc4ccc(F)cc4n3)n[nH]c12 [Compound 13704] | 350 nM | 169 nM |  |  | 
Cc1cc(F)cc2c(-c3cnc4cccc(Cl)c4n3)c[nH]c12 [Compound 13705] |  |  |  | Inactive | Inactive
Clc1cccc2nc(-c3c[nH]c4ccccc34)ccc12 [Compound 13706] |  |  |  | Inactive | Inactive
Fc1cc2[nH]cc(-c3ccc4c(Cl)cccc4n3)c2cc1F [Compound 13707] |  |  |  | Inactive | Inactive
Cc1cc(F)cc2c(-c3ccc4cccc(F)c4n3)c[nH]c12 [Compound 13708] | 290 nM | 290 nM |  |  | 
Cc1cc(F)cc2c(-c3ccc4c(Cl)cccc4n3)c[nH]c12 [Compound 13709] |  |  |  | Inactive | Inactive
CNC(=O)c1cccc2nc(-c3c[nH]c4c(C)cc(F)cc34)ccc12 [Compound 13710] | 230 nM | 250 nM |  |  | 
O=[N+]([O-])c1cccc2nc(-c3c[nH]c4c(Cl)cccc34)ccc12 [Compound 13711] |  |  |  | Inactive | Inactive
Fc1cccc2nc(-c3c[nH]c4c(Cl)cccc34)ccc12 [Compound 13712] |  |  |  | Inactive | Inactive
Fc1cccc2nc(-c3c[nH]c4c(Br)cccc34)ccc12 [Compound 13714] |  |  |  | Inactive | Inactive
Cc1cc(F)cc2c(-c3cnc4ccc(F)cc4n3)c[nH]c12 [Compound 13717] | 490 nM | 330 nM |  |  | 
Cc1cc(F)cc2c(-c3cnc4ccc(F)cc4n3)n[nH]c12 [Compound 13718] | 370 nM | 110 nM |  |  | 
Fc1cc(Cl)cc2cc[nH]c12 [Compound 13720] |  |  |  | Inactive | Inactive
Fc1cc(Cl)c2[nH]ccc2c1 [Compound 13721] |  |  |  | Inactive | Inactive
Cc1cc(F)cc2cc[nH]c12 [Compound 13722] |  |  |  | Inactive | Inactive
Fc1cc(F)c2[nH]ccc2c1 [Compound 13723] |  |  |  | Inactive | Inactive
Cc1cc(Cl)c2[nH]ccc2c1 [Compound 13724] |  |  |  | Inactive | Inactive
Fc1ccc2cc[nH]c2c1Cl [Compound 13725] |  |  |  | Inactive | Inactive

SMILES | IC50 (androgen receptor (AR)) | IC50 (PSA; Homo sapiens, 72 h) | IC50 (PSA) | eGFP IC50 (androgen receptor (AR)) | PSA IC50 (PSA)
Fc1ccc(Cl)c2[nH]ccc12 [Compound 13726] |  |  |  | Inactive | Inactive
Cc1ccc2ccc(Cl)nc2c1 [Compound 13727] |  |  |  | Inactive | Inactive
Fc1ccc2ccc(Cl)nc2c1 [Compound 13728] |  |  |  | Inactive | Inactive
Fc1cccc2ccc(Cl)nc12 [Compound 13729] |  |  |  | Inactive | Inactive
N#Cc1cc(F)cc2c(-c3ccc4ccc(F)cc4n3)c[nH]c12 [Compound 13730] | 149 nM | 198 nM |  |  | 
CNC(=O)c1cccc2nc(-c3c[nH]c4c(C#N)cc(F)cc34)ccc12 [Compound 13731] | 304 nM | 255 nM |  |  | 
Cc1cccc2c(-c3ccc(-c4ccccc4)cc3)c[nH]c12 [Compound 13733] | 3810 nM | 919 nM |  |  | 
COC(=O)c1cccc2c(-c3ccc(Br)cc3)c[nH]c12 [Compound 13736] | 620 nM | 680 nM |  |  | 
O=[N+]([O-])c1cccc2c(-c3ccc(Br)cc3)c[nH]c12 [Compound 13738] | 83 nM | 62 nM |  |  | 
FC(F)(F)c1ccc(-c2c[nH]c3ccccc23)nc1 [Compound 13741] | 290 nM | 290 nM |  |  | 
Fc1ccc(-c2c[nH]c3ccccc23)nc1 [Compound 13742] | 220 nM | 200 nM |  |  | 
FC(F)(F)c1ccc(-c2c[nH]c3ccccc23)cc1 [Compound 13743] | 380 nM | 390 nM |  |  | 
Cc1cccc2c(-c3ccc4cccnc4c3)c[nH]c12 [Compound 13744] | 760 nM | 750 nM |  |  | 
FC(F)(F)c1ccccc1-c1c[nH]c2ccccc12 [Compound 13745] | 1010 nM | 950 nM |  |  | 
NC(=O)c1cccc2nc(-c3c[nH]c4c(Cl)cc(F)cc34)ccc12 [Compound 13746] |  |  |  | Inactive | Inactive
NC(=O)c1cccc2nc(-c3c[nH]c4c(F)cc(F)cc34)ccc12 [Compound 13747] |  |  |  | Inactive | Inactive
Clc1cccc2nc(-c3c[nH]c4c(Cl)cccc34)ccc12 [Compound 13748] |  |  |  | Inactive | Inactive
Fc1ccc2nc(-c3c[nH]c4c(F)c(F)c(F)cc34)ccc2c1 [Compound 13749] | 290 nM | 220 nM |  |  | 
Fc1cc2c(-c3ccc4c(Cl)cccc4n3)c[nH]c2c(F)c1F [Compound 13750] |  |  |  | Inactive | Inactive
Fc1cc2c(-c3ccc4c(F)cccc4n3)c[nH]c2c(F)c1F [Compound 13751] |  |  |  | Inactive | Inactive
Fc1cc(F)c2[nH]cc(-c3ccc4cccc(F)c4n3)c2c1F [Compound 13752] | 370 nM | 260 nM |  |  | 
Fc1cc(F)c2[nH]cc(-c3ccc4c(Cl)cccc4n3)c2c1F [Compound 13753] | 160 nM | 98 nM |  |  | 
CNC(=O)c1ccc(Cl)c2nc(-c3c[nH]c4c(F)c(F)c(F)cc34)ccc12 [Compound 13755] | 470 nM | 470 nM |  |  | 
Cc1cccc2c(-c3ccc4ncsc4c3)c[nH]c12 [Compound 13757] |  |  |  | Inactive | Inactive
